Experimental data as given in PubChem BioAssay (NCI).
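1) Cells in 96-well plates. 2) Compound, 48 h, 5 concentrations. 3) Linear interpolation between surrounding doses. 4) Unreached endpoint = highest concentration. Definition used: TGI = concentration required for complete inhibition of growth.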

Columns and labels:
Assay in all cases: inhibition of tumour cell growth, NCI panel, 48 h
[1] = system: 786-0 renal
[2] = system: A498 renal
[3] = system: A549 NSCLC
[4] = system: ACHN renal
[5] = system: BT-549 breast
[6] = system: CAKI-1 renal
[7] = system: CCRF-CEM leukemia
[8] = system: COLO 205 colon
[9] = system: DU-145 prostate
[10] = system: EKVX NSCLC
[11] = system: HCC-2998 colon
[12] = system: HCT-116 colon
[13] = system: HCT-15 colon
[14] = system: HL-60(TB) leukemia
[15] = system: HOP-62 NSCLC
[16] = system: HOP-92 NSCLC
[17] = system: HS 578T breast
[18] = system: HT29 colon
[19] = system: IGROV1 ovarian
[20] = system: K-562 leukemia
[21] = system: KM12 colon
[22] = system: LOX IMVI melanoma
[23] = system: M14 melanoma
[24] = system: MALME-3M melanoma
[25] = system: MCF7 breast
[26] = system: MDA-MB-435
[27] = system: MDA-N
[28] = system: MOLT-4 leukemia
[29] = system: NCI-H226 lung
[30] = system: NCI-H23 lung
[31] = system: NCI-H460 lung
[32] = system: NCI-H522 lung
[33] = system: NCI/ADR-RES ovarian
[34] = system: OVCAR-3 ovarian
[35] = system: OVCAR-5 ovarian
[36] = system: OVCAR-8 ovarian
[37] = system: PC-3 prostate
[38] = system: SF-268 CNS
[39] = system: SF-295 CNS
[40] = system: SF-539 CNS
[41] = system: SK-MEL-2 melanoma
[42] = system: SK-MEL-28 melanoma
[43] = system: SK-MEL-5 melanoma
[44] = system: SK-OV-3 ovarian
[45] = system: SN12C renal
[46] = system: SNB-19 CNS
[47] = system: SNB-75 CNS
[48] = system: SR leukemia
[49] = system: SW-620 colon
[50] = system: T-47D breast
[51] = system: UACC-257 melanoma
[52] = system: UACC-62 melanoma
[53] = system: UO-31 renal
[54] = system: MDA-MB-231 breast
[55] = system: OVCAR-4 ovarian
[56] = system: RPMI-8226 leukemia
[57] = system: RXF 393 renal
[58] = system: TK-10 renal
[59] = system: U251 CNS

## CSc1ccc(/C=C2\N=C(c3ccccc3)N(NC(=O)c3c(Cl)c(Cl)c(Cl)c(Cl)c3-c3nc4ccccc4[nH]3)C2=O)cc1
[1]
  TGI: > 100 µM
[2]
  TGI: 80.3 µM
[3]
  TGI: > 100 µM
[4]
  TGI: > 100 µM
[5]
  TGI: > 100 µM
[6]
  TGI: 85.3 µM
[7]
  TGI: > 100 µM
[8]
  TGI: 95.9 µM
[9]
  TGI: > 100 µM
[10]
  TGI: > 100 µM
[11]
  TGI: 39.3 µM
[12]
  TGI: 83.3 µM
[13]
  TGI: > 100 µM
[14]
  TGI: 61 µM
[15]
  TGI: > 100 µM
[16]
  TGI: 52.2 µM
[17]
  TGI: > 100 µM
[18]
  TGI: > 100 µM
[19]
  TGI: > 100 µM
[20]
  TGI: 66.4 µM
[21]
  TGI: 65.6 µM
[22]
  TGI: > 100 µM
[23]
  TGI: > 100 µM
[24]
  TGI: > 100 µM
[25]
  TGI: > 100 µM
[26]
  TGI: 19.7 µM
[27]
  TGI: > 100 µM
[28]
  TGI: 77.3 µM
[29]
  TGI: > 100 µM
[30]
  TGI: 83 µM
[31]
  TGI: 28 µM
[32]
  TGI: > 100 µM
[33]
  TGI: > 100 µM
[34]
  TGI: > 100 µM
[35]
  TGI: > 100 µM
[36]
  TGI: > 100 µM
[37]
  TGI: > 100 µM
[38]
  TGI: > 100 µM
[39]
  TGI: > 100 µM
[40]
  TGI: > 100 µM
[41]
  TGI: > 100 µM
[42]
  TGI: > 100 µM
[43]
  TGI: > 100 µM
[44]
  TGI: > 100 µM
[45]
  TGI: > 100 µM
[46]
  TGI: > 100 µM
[47]
  TGI: 46.6 µM
[48]
  TGI: > 100 µM
[49]
  TGI: > 100 µM
[50]
  TGI: 25.6 µM
[51]
  TGI: > 100 µM
[52]
  TGI: 59 µM
[53]
  TGI: > 100 µM

## CC(=O)C1=C(C)N2C(=NC3=C(CCc4ccccc43)C2c2ccc(Cl)cc2)S1 (stereo unspecified)
[1]
  TGI: > 100 µM
[2]
  TGI: 51 µM
[3]
  TGI: > 100 µM
[4]
  TGI: > 100 µM
[5]
  TGI: > 100 µM
[6]
  TGI: > 100 µM
[7]
  TGI: > 96.6 µM
[8]
  TGI: > 100 µM
[9]
  TGI: > 100 µM
[10]
  TGI: > 100 µM
[11]
  TGI: > 100 µM
[12]
  TGI: > 100 µM
[13]
  TGI: > 100 µM
[14]
  TGI: 10.9 µM
[15]
  TGI: > 100 µM
[16]
  TGI: > 100 µM
[17]
  TGI: > 100 µM
[18]
  TGI: > 100 µM
[19]
  TGI: > 100 µM
[20]
  TGI: > 56.2 µM
[21]
  TGI: > 100 µM
[22]
  TGI: > 100 µM
[23]
  TGI: > 100 µM
[24]
  TGI: > 100 µM
[25]
  TGI: > 100 µM
[54]
  TGI: > 100 µM
[26]
  TGI: > 100 µM
[27]
  TGI: > 100 µM
[28]
  TGI: 55.3 µM
[29]
  TGI: > 100 µM
[30]
  TGI: > 100 µM
[31]
  TGI: > 100 µM
[32]
  TGI: 82.7 µM
[33]
  TGI: > 100 µM
[34]
  TGI: > 100 µM
[55]
  TGI: > 100 µM
[35]
  TGI: > 100 µM
[36]
  TGI: > 100 µM
[37]
  TGI: > 100 µM
[56]
  TGI: 12.8 µM
[57]
  TGI: > 100 µM
[38]
  TGI: > 100 µM
[39]
  TGI: > 100 µM
[40]
  TGI: > 100 µM
[41]
  TGI: > 100 µM
[42]
  TGI: > 100 µM
[43]
  TGI: > 100 µM
[44]
  TGI: > 100 µM
[45]
  TGI: > 100 µM
[46]
  TGI: > 100 µM
[47]
  TGI: > 100 µM
[49]
  TGI: > 100 µM
[50]
  TGI: > 100 µM
[58]
  TGI: > 100 µM
[59]
  TGI: > 100 µM
[51]
  TGI: > 100 µM
[52]
  TGI: > 100 µM
[53]
  TGI: > 100 µM
